Results taken from patent US20050221381A1, “Method for isolating ligands” (priority 2002, published 2005).
Read-outs that look alike come from different tables or passages of the source.

Tests used:
[1] = biological target: T1, soluble DRB1*0401 molecules (DR4) (Homo sapiens, UniProt P01903+P01911, A100K/A169T/F76Y/I96L/K127E/L162R/M171V/N62H/P40V/Q125Y/R42H/S133A/S149N/S66Y/V115G/V209L/W38E); type: binding; parameters: key: +++: high binding affinity; ++: moderate binding affinity; +: low binding affinity; −: no binding; details: individual pp65 15mer, SDS-stability assay
T1 construct: Soluble HLA class I A*0201 and HLA class II DRA1*0101/DRB1*0101/Ii, DRA1*0101/DRB1*0401/Ii and DRA1*0101/DRB1*0404/Ii molecules were expressed in SC-2 cells; made in house; host or cells: SC-2 cells

[2] = biological target: T1, soluble DRB1*0401 molecules (DR4); type: binding; parameters: key to DR4 binding: +++: high binding affinity; ++: moderate binding affinity; +: low binding affinity; −: no binding; key to Binding to DRB1 *0401: −: no binding/T cell response; +/−: weak binding/T cell response; +: intermediate binding/T cell response; ++: strong binding/T cell response; details: for Binding to DRB1 *0401: soluble DRB1*0401 molecules
[3] = biological target: T1, soluble DRB1*0401 molecules (DR4); type: binding; parameters: key: −: no binding; +/−: weak binding; +: intermediate binding; ++: strong binding; details: individual pp65 15mer, SDS-stability assay
[4] = system: HLA-DRB1*0401-transgenic mice splenocytes; type: in vivo, mouse; parameters: key to DRB1*0401 mice total SC (T cell response) / DRB1*0401 mice CD4+ (T cell response): −: no binding/T cell response; +/−: weak binding/T cell response; +: intermediate binding/T cell response; ++: strong binding/T cell response
[5] = system: PBMC from CMV seropositive donors; type: cell-based, human
[6] = IFN-gamma ELISpot, enriched CD4+ fraction of splenocytes of HLA-DR4 transgenic mice vaccinated with the longer peptide, ex vivo re-stimulation
[7] = IFN-gamma ELISpot, total splenocytes of HLA-DR4 transgenic mice vaccinated with the longer peptide, ex vivo re-stimulation
[8] = direct binding of individual peptides, SDS-stability assay, compared with YAR and HA306-318

Row | Sequence | Binding to DRB1 *0401 [2] | DRB1*0401 mice CD4+ (T cell response) [4, 6] | DRB1*0401 mice total SC (T cell response) [4, 7] | further results
1 | QNQWKEPDVYYTSAF [Peptide 172] |  |  |  | Binding to DRB1*0401 [1]: −
2 | QYTPDSTPCHRGDNQ [Peptide 60] | ++ | +/− | ++ | Binding to DRB1*0401 [3]: ++
3 | MTRGRLKAESTVAPE [Peptide 451] | + | ++ | + | Binding to DRB1*0401 [3]: +
4 | QGDDDVWTSGSDSDE [Peptide 394] |  |  |  | Recognition by T cells in HLA context other than described [5]: recognized by T cells in a different HLA context than known before
5 | YSEHPTFTSQYRIQG [Peptide 363] |  |  |  | DRB1*0401 mice CD4+ (T cell response) ([4]; mouse, in vivo): ++; DRB1*0401 mice total SC (T cell response) ([4]; mouse, in vivo, sc): +
6 | VSDLKSSTAVIPGYPV [Peptide 1240] |  |  |  | DR4 binding [2, 8]: +
7 | PTFTSQYRIQGKLEY [Peptide 367] |  |  |  | Binding to DRB1*0401 [1]: −
8 | SGVMTRGRLKAESTV [Peptide 448] | − | − | +/− | Binding to DRB1*0401 [1]: −
9 | YPKYVKQNTLKLAT [HA306-318, reference compound] |  |  |  | DR4 binding [2]: ++
10 | RGRLKAESTVAPEED [Peptide 453] | + | +/− | +/− | Binding to DRB1*0401 [3]: +
11 | TRATKMQVIGDQYVK [Peptide 211] |  |  |  | Induction of IFN-gamma secretion in T cells / PBMC from CMV seropositive donors [5]: can induce functional, IFN-gamma secreting T cells in humans
12 | NLVPMVATV [reference compound] |  |  |  | Number of donors recognizing the epitope ([5]; HLA A2 donors): 9 out of 10; Frequency in screen (number of refinding/number of donors' expressing the respective HLA type) ([5]; literature known class I epitopes): 8/9
13 | VMTRGRLKAESTVAP [Peptide 450] | + | ++ | + | Binding to DRB1*0401 [3]: +
14 | PDVYYTSAFVFPTKD [Peptide 178] | ++ | + | + | Binding to DRB1*0401 [3]: ++
15 | ATKMQVIGDQYVKVY [Peptide 213] |  |  |  | Induction of IFN-gamma secretion in T cells / PBMC from CMV seropositive donors [5]: can induce functional, IFN-gamma secreting T cells in humans
16 | HDEGAAQGDDDVWTS [Peptide 388] |  |  |  | Binding to DRB1*0401 [1]: −
17 | YRHTWDRHDEGAAQG [Peptide 381] | − | − | − | 
18 | GVMTRGRLKAESTVA [Peptide 449] | +/− | ++ | + | Binding to DRB1*0401 [3]: +/−
19 | STPCHRGDNQLQVQH [Peptide 65] | − | − | − | Binding to DRB1*0401 [1]: −
20 | TPRVTGGGAMAGAST [Peptide 417] |  |  |  | Recognition by T cells in HLA context other than described [5]: recognized by T cells in a different HLA context than known before
21 | NFLLPDAQSIQAAAAG [Peptide 1241] |  |  |  | DR4 binding [2, 8]: ++
22 | NFAGIEAAASAIQGNV [Peptide 1238] |  |  |  | DR4 binding [2, 8]: −
23 | QNLKYQEFFWDANDI [Peptide 506] | − | +/− | ++ | Induction of IFN-gamma secretion in T cells / PBMC from CMV seropositive donors [5]: can induce functional, IFN-gamma secreting T cells in humans
24 | PFMRPHERNGFTVLC [Peptide 262] |  |  |  | Recognition by T cells in HLA context other than described [5]: recognized by T cells in a different HLA context than known before
25 | WDRHDEGAAQGDDDV [Peptide 385] | − | − | − | Binding to DRB1*0401 [1]: −
26 | IDELKTNSSLLTSILTYHVV [Peptide 1235] |  |  |  | DR4 binding [2, 8]: −
27 | ARNLVPMVATVQGQN [Peptide 493] |  |  |  | Reactivity, induction of IFN-gamma secretion ([5]; donor 10736, single peptides, secondary screen (FIG. 9)): inducers of IFN-gamma secretion
28 | EYRHTWDRHDEGAAQ [Peptide 380] | − | − | − | Binding to DRB1*0401 [1]: −
29 | VQGQNLKYQEFFWDA [Peptide 503] |  |  |  | Induction of IFN-gamma secretion in T cells / PBMC from CMV seropositive donors [5]: can induce functional, IFN-gamma secreting T cells in humans
